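Five compound concentrations were applied to cells in 96-well plates for 48 hours; endpoints were derived by simple linear interpolation of the resulting dose-response curve. GI50 = concentration required for 50% inhibition of growth.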 Active and inactive are the calls of the source. Cut-off read from the data, not from the text of the source: active = GI50 up to about 1.1 µM and inactive = higher.
What was measured:
Test in all cases: inhibition of tumour cell growth, NCI panel, 48 h
[1] = tested on: T47D
[2] = tested on: EKVX
[3] = tested on: SR
[4] = tested on: M14
[5] = tested on: K562
[6] = tested on: SNB-75
[7] = tested on: ACHN
[8] = tested on: KM12
[9] = tested on: BT-549
[10] = tested on: PC-3
[11] = tested on: NCI-H522
[12] = tested on: HCC 2998
[13] = tested on: NCI/ADR-RES
[14] = tested on: MOLT-4
[15] = tested on: RXF 393
[16] = tested on: HCT-15
[17] = tested on: SK-OV-3
[18] = tested on: RPMI-8226
[19] = tested on: HCT-116
[20] = tested on: OVCAR-5

| Compound | GI50 [1] | GI50 [2] | GI50 [3] | GI50 [4] | GI50 [5] | GI50 [6] | GI50 [7] | GI50 [8] | GI50 [9] | GI50 [10] | GI50 [11] | GI50 [12] | GI50 [13] | GI50 [14] | GI50 [15] | GI50 [16] | GI50 [17] | GI50 [18] | GI50 [19] | GI50 [20] |
| --- | --- | --- | --- | --- | --- | --- | --- | --- | --- | --- | --- | --- | --- | --- | --- | --- | --- | --- | --- | --- |
| CC(C)(C)OC(=O)N1CCc2c(n(C/C=C/c3ccccc3)[nH]c2=O)C1 | 46.7 µM (inactive) | > 83.8 µM (inactive) | 35.5 µM (inactive) | > 100 µM (inactive) | 46.6 µM (inactive) | > 100 µM (inactive) | > 100 µM (inactive) | > 100 µM (inactive) | > 100 µM (inactive) | > 100 µM (inactive) | > 51.2 µM (inactive) | > 100 µM (inactive) | 26.2 µM (inactive) | 33.6 µM (inactive) | > 100 µM (inactive) | > 100 µM | > 100 µM (inactive) | 95.5 µM (inactive) | > 100 µM (inactive) |  |
| O=S(=O)(/N=c1/[nH]c2ccccc2n1S(=O)(=O)c1ccccc1)c1ccccc1 | 53.1 µM (inactive) | 65.6 µM (inactive) | > 10 µM (inactive) | 25.2 µM (inactive) | 32.7 µM (inactive) | 88.3 µM (inactive) | 26.5 µM (inactive) | 33.1 µM (inactive) | 41.2 µM (inactive) | 36.8 µM (inactive) | 50.4 µM (inactive) |  | 44.9 µM (inactive) | 29.2 µM (inactive) | 56.8 µM (inactive) | 36.3 µM | 50 µM (inactive) | 35.4 µM (inactive) | 46.7 µM (inactive) | 64.9 µM (inactive) |
| CC(O)C1(CNc2cc(Cl)nc(N)n2)CCC1 (stereo not given) | 33.3 µM (inactive) | 59.3 µM (inactive) | > 100 µM (inactive) |  | > 100 µM (inactive) |  | > 100 µM (inactive) | > 100 µM (inactive) | > 100 µM (inactive) | > 100 µM (inactive) | > 100 µM (inactive) | > 100 µM (inactive) | > 100 µM (inactive) | > 100 µM (inactive) | 24.2 µM (inactive) | > 100 µM | > 100 µM (inactive) | > 100 µM (inactive) | > 100 µM (inactive) | > 100 µM (inactive) |
| CC(=O)NC1C(OCc2ccccc2)OC(CO)C(O)C1OCC(=O)NC(C)C(=O)NC(CCC(=O)Nc1ccc2c(c1)CN1C(=O)c3ccccc3C1=N2)C(N)=O (stereo not given) | 42.8 µM (inactive) | > 100 µM (inactive) | > 100 µM (inactive) | > 100 µM (inactive) | > 100 µM (inactive) | > 100 µM (inactive) | > 100 µM (inactive) | > 100 µM (inactive) | > 100 µM (inactive) | > 100 µM (inactive) |  | > 100 µM (inactive) | > 100 µM (inactive) | 89.1 µM (inactive) | > 100 µM (inactive) | > 100 µM | > 100 µM (inactive) | > 100 µM (inactive) | > 100 µM (inactive) | > 100 µM (inactive) |
| CN(N=O)C(=N)NC(=O)c1ccccc1 | > 100 µM (inactive) | 61.2 µM (inactive) | 4.33 µM (inactive) | > 100 µM (inactive) | > 100 µM (inactive) | 51.5 µM (inactive) | > 100 µM (inactive) | > 100 µM (inactive) | > 100 µM (inactive) | > 100 µM (inactive) | > 100 µM (inactive) |  | > 100 µM (inactive) | > 100 µM (inactive) | > 100 µM (inactive) | > 100 µM | > 100 µM (inactive) | > 100 µM (inactive) | 67.6 µM (inactive) | > 100 µM (inactive) |
| Cc1cc(C)c2c(O)c(S(=O)(=O)c3ccc(Cl)cc3)c(=O)oc2c1 | 99.8 µM (inactive) | 22.7 µM (inactive) | 82.4 µM (inactive) | 34.3 µM (inactive) | 55.6 µM (inactive) | 45 µM (inactive) |  | 36.1 µM (inactive) | 67.9 µM (inactive) | 49 µM (inactive) |  |  | 26.2 µM (inactive) |  | > 100 µM (inactive) | 49.7 µM | 70.8 µM (inactive) | 60.1 µM (inactive) | 53.5 µM (inactive) | 93.1 µM (inactive) |
| COc1ccc(C2(c3ccc(OC)cc3)OC(=O)c3cccc4cccc2c34)cc1 | 2.24 µM (inactive) | 2.76 µM (inactive) | 2.54 µM (inactive) | 3.78 µM (inactive) | 3.36 µM (inactive) |  | 7.93 µM (inactive) | 3.85 µM (inactive) | 11.4 µM (inactive) | 2.16 µM (inactive) |  | 3.14 µM (inactive) | 2.72 µM (inactive) | 4.58 µM (inactive) | 15.9 µM (inactive) | 4.15 µM | 6.46 µM (inactive) | 3.12 µM (inactive) | 3.71 µM (inactive) | > 100 µM (inactive) |
| O=C1OC(C2Cc3ccc4c(c3C2=O)CCCC4)c2ccccc21 (stereo not given) | 63 µM (inactive) | 44.6 µM (inactive) | > 10 µM (inactive) | 50.4 µM (inactive) | 21.8 µM (inactive) | 65.6 µM (inactive) | 44.6 µM (inactive) | 44 µM (inactive) | 54.8 µM (inactive) | 26.4 µM (inactive) | 48.4 µM (inactive) | 30.8 µM (inactive) | 46 µM (inactive) | 16.8 µM (inactive) |  | 28.4 µM | 73.6 µM (inactive) | 42.5 µM (inactive) | 40 µM (inactive) | > 100 µM (inactive) |
| CNC(=O)CC1NC(=O)c2csc(n2)-c2ccc(-c3nc(C4=NC(C(=O)N5CCCC5C(N)=O)CO4)cs3)nc2-c2csc(n2)-c2csc(n2)C(C(C)C)NC(=O)CNC(=O)c2csc(n2)C(C(C)C)NC(=O)c2nc1sc2C (stereo not given) | 0.0033 µM (active) | 2.38 µM (inactive) | > 25 µM (inactive) | 0.0123 µM (active) | 0.00239 µM (active) | 0.00203 µM (active) | 4.37 µM (inactive) | 0.0171 µM (active) | 0.0268 µM (active) | 0.00489 µM (active) |  | 0.00762 µM (active) | 6.05 µM (inactive) | 0.00728 µM (active) | 0.00386 µM (active) | 0.479 µM | 0.0013 µM (active) | > 25 µM (inactive) | 0.00114 µM (active) | 0.0271 µM (active) |
| Cc1cn([C@@H]2C[C@@H]2CO)c(=O)[nH]c1=O | > 100 µM (inactive) | > 100 µM (inactive) | > 100 µM (inactive) | > 100 µM (inactive) | > 100 µM (inactive) | > 100 µM (inactive) | > 100 µM (inactive) | > 100 µM (inactive) | > 100 µM (inactive) | > 100 µM (inactive) | > 100 µM (inactive) | > 100 µM (inactive) | > 100 µM (inactive) | > 100 µM (inactive) | > 100 µM (inactive) | > 100 µM |  | > 100 µM (inactive) | > 100 µM (inactive) | > 100 µM (inactive) |
| CC(=O)NC1C(OCc2ccccc2)OC(CO)C(O)C1OCC(=O)NC(C)C(=O)NC(CCC(=O)NCCCCCC(=O)Nc1ccc2c(c1)CN1C(=O)c3ccccc3C1=N2)C(N)=O (stereo not given) | > 100 µM (inactive) | > 100 µM (inactive) | 17.4 µM (inactive) | > 100 µM (inactive) | 45 µM (inactive) | 49.8 µM (inactive) | 62.8 µM (inactive) | 34.5 µM (inactive) | > 100 µM (inactive) | 58.6 µM (inactive) |  | 61.4 µM (inactive) | > 100 µM (inactive) | 42.1 µM (inactive) | > 100 µM (inactive) | > 100 µM | > 100 µM (inactive) | 38 µM (inactive) | 39.6 µM (inactive) | > 100 µM (inactive) |
| COc1ccccc1N1C(=O)CSC1c1cc(OC)c(OC)c(OC)c1 (stereo not given) | 12.4 µM (inactive) | > 100 µM (inactive) | 10.7 µM (inactive) | > 88.5 µM (inactive) | 24.9 µM (inactive) | > 100 µM (inactive) | > 100 µM (inactive) | 21.3 µM (inactive) | > 34 µM (inactive) | > 78.2 µM (inactive) | 17.7 µM (inactive) | > 100 µM (inactive) | 69.8 µM (inactive) | 27.9 µM (inactive) | > 52.1 µM (inactive) | 50.6 µM |  | 16.6 µM (inactive) | 13.3 µM (inactive) | > 100 µM (inactive) |
| COc1cc(/C=C/C(=O)CC(=O)/C=C/c2cc(C)c(O)c(OC)c2)cc(C)c1O | > 100 µM (inactive) | > 100 µM (inactive) | 6.82 µM (inactive) | > 100 µM (inactive) | > 100 µM (inactive) | > 100 µM (inactive) | > 100 µM (inactive) | > 100 µM (inactive) | > 100 µM (inactive) | > 100 µM (inactive) | > 100 µM (inactive) | > 100 µM (inactive) | > 100 µM (inactive) | > 100 µM (inactive) |  | > 100 µM | > 100 µM (inactive) | 37.6 µM (inactive) | 58.3 µM (inactive) | > 100 µM (inactive) |
| COc1cc2c(c(O)c1OC)C(O)C1CCC(=O)N1C2c1cccc2ccccc12 (stereo not given) | > 100 µM (inactive) | 67.8 µM (inactive) | > 100 µM (inactive) | > 100 µM (inactive) | > 100 µM (inactive) | 27 µM (inactive) | 82.2 µM (inactive) | 34.9 µM (inactive) | > 100 µM (inactive) | 49.7 µM (inactive) | 27.7 µM (inactive) |  | 54.6 µM (inactive) | 58.2 µM (inactive) | 57.9 µM (inactive) | > 100 µM | 56.1 µM (inactive) | > 100 µM (inactive) | > 100 µM (inactive) | > 100 µM (inactive) |
| COc1ccc(C2Oc3c(cccc3OC)C=C2[N+](=O)[O-])cc1OC (stereo not given) | 12.2 µM (inactive) | 45.2 µM (inactive) | 2.59 µM (inactive) | 3.82 µM (inactive) | 2.58 µM (inactive) | 7.21 µM (inactive) | 10.4 µM (inactive) | 9.98 µM (inactive) | 5.47 µM (inactive) | 4.08 µM (inactive) | 2.97 µM (inactive) |  | 3.87 µM (inactive) | 2.85 µM (inactive) | 2.57 µM (inactive) | 3.46 µM | 4.9 µM (inactive) | 32.3 µM (inactive) | 4.55 µM (inactive) | 13.8 µM (inactive) |
